Source: ChEMBL document CHEMBL4354834 (J Med Chem, 2020)
Blank lines part the entries; values can stand above or below the molecule they belong to.

Legend:
[1] = Clearance in rat at 1.13 mg/kg, iv or 2.27 mg/kg, po; type: ADME, organism-based; settings: in vivo
[2] = Half life in rat at 1.13 mg/kg, iv or 2.27 mg/kg, po; type: ADME, organism-based; settings: in vivo
[3] = Volume of distribution at steady state in rat at 1.13 mg/kg, iv or 2.27 mg/kg, po; type: ADME, organism-based; settings: in vivo, read-out: Vdss
[4] = Oral bioavailability in rat at 2.27 mg/kg; type: ADME, organism-based; settings: in vivo
[5] = AUC in rat at 2.27 mg/kg, po; type: ADME, organism-based; settings: in vivo
[6] = Protein binding in rat; type: ADME; settings: plasma, read-out: PB (converted)
[7] = Metabolic stability in cynomolgus monkey liver microsomes assessed as half life; type: ADME, Macaca fascicularis, Microsome
[8] = Metabolic stability in dog liver microsomes assessed as half life; type: ADME, Canis lupus familiaris, Microsome
[9] = Metabolic stability in human liver microsomes assessed as half life; type: ADME, Microsome
[10] = Permeability of the compound across apical side to basolateral side in human Caco2 cells; type: ADME, cell-based; settings: Caco-2, read-out: permeability
[11] = Permeability of the compound across basolateral side to apical side in human Caco2 cells; type: ADME, cell-based; settings: Caco-2, read-out: permeability
[12] = Metabolic stability in rat liver microsomes assessed as half life; type: ADME, Microsome
Coagulation factor VII = biological target: T1, Coagulation factor VII (Homo sapiens, UniProt P08709); experiment: Inhibition of activated human coagulation factor VII using H-(D)-Ile-Pro-Arg-pNA as substrate by spectrophotometry
T1 sequence (P08709 whole entry): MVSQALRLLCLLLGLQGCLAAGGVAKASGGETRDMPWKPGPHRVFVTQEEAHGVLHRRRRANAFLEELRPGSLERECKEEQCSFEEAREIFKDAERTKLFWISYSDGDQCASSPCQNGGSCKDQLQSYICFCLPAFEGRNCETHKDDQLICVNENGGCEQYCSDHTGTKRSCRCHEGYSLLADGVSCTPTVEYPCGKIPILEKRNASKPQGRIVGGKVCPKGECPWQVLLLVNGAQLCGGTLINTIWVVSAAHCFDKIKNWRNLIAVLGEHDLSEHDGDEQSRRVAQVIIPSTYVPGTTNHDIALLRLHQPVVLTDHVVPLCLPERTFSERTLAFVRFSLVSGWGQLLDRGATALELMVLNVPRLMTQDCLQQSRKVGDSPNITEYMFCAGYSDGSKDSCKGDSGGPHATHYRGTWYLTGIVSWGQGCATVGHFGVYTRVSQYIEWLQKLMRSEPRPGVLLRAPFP

Coagulation factor IX = Coagulation factor IX (Homo sapiens, UniProt P00740); experiment: Inhibition of activated human coagulation factor IX using 7-amino-4-methylcoumarin as substrate by spectrofluorimetry
Coagulation factor X = Coagulation factor X (Homo sapiens, UniProt P00742); experiment: Inhibition of activated human coagulation factor X using N-benzoyl-Ile-Glu-OH-OMe-Gly-Arg-pNA as substrate by spectrophotometry
Coagulation factor XII = biological target: T2, Coagulation factor XII (Homo sapiens, UniProt P00748); experiment: Inhibition of activated human coagulation factor XII using H-(D)-CHT-Gly-Arg-pNA as substrate by spectrophotometry
T2 sequence (P00748 whole entry): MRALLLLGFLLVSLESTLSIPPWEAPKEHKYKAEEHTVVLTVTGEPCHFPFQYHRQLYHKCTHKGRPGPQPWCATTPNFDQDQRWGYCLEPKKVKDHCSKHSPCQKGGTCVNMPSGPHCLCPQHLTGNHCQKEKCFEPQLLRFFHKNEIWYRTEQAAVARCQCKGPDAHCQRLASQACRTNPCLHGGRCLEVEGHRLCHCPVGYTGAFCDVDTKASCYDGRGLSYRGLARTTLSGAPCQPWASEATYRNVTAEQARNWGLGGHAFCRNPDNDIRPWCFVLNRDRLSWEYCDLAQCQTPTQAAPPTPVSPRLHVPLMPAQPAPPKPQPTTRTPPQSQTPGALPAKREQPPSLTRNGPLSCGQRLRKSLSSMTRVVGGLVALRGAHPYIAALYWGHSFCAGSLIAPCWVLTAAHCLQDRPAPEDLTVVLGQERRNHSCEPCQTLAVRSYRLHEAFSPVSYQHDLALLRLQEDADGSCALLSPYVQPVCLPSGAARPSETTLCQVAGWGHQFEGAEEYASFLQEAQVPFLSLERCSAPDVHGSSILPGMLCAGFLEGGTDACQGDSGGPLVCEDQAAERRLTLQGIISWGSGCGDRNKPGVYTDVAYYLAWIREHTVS

Prothrombin = Prothrombin (Homo sapiens, UniProt P00734); experiment: Inhibition of human alpha-thrombin using pyro-Glu-Pro-Arg-pNA as substrate by spectrophotometry
Trypsin = Trypsin (Homo sapiens, UniProt P07477+P07478+P35030); experiment: Inhibition of human trypsin using N-benzoyl-Ile-Glu-OH-OMe-Gly-Arg-pNA as substrate by spectrophotometry; type: protein assay
Plasma kallikrein = Plasma kallikrein (Homo sapiens, UniProt P03952); experiment: Inhibition of human kallikrein using H-(D)-Pro-Phe-Arg-pNA as substrate by spectrophotometry
[13] = biological target: Vitamin K-dependent protein C (Homo sapiens, UniProt P04070); experiment: Inhibition of activated human protein C using pyro-Glu-Pro-Arg-pNA as substrate by spectrophotometry
Plasminogen = Plasminogen (Homo sapiens, UniProt P00747); experiment: Inhibition of human plasmin using H-(D)-Val-Leu-Lys-pNA as substrate by spectrophotometry
[14] = biological target: Urokinase-type plasminogen activator (Homo sapiens, UniProt P00749); experiment: Inhibition of activated human urokinase using pyro-Glu-Gly-Arg-pNA as substrate by spectrophotometry
[15] = Clearance in rat at 0.50 mg/kg, iv or 1.0 mg/kg, po; type: ADME, organism-based; settings: in vivo, 0.5 mg/kg
[16] = Half life in rat at 0.50 mg/kg, iv or 1.0 mg/kg, po; type: ADME, organism-based; settings: in vivo
[17] = Volume of distribution at steady state in rat at 0.50 mg/kg, iv or 1.0 mg/kg, po; type: ADME, organism-based; settings: in vivo, 0.5 mg/kg, read-out: Vdss
[18] = Oral bioavailability in rat at 1.0 mg/kg; type: ADME, organism-based; settings: in vivo

Plasma kallikrein, sequence (P03952 20-390 limits assumed): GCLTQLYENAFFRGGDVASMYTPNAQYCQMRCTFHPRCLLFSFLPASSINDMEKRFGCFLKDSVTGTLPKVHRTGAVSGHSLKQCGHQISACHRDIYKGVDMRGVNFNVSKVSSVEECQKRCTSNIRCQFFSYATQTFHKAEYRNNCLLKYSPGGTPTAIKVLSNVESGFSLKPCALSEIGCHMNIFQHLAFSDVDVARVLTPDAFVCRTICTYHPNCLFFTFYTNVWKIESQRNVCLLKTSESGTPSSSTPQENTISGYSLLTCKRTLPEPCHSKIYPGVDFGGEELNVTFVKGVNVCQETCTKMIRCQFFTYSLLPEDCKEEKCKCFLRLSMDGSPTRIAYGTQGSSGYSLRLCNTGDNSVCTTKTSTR
Plasma kallikrein, sequence (P03952 391-638 limits assumed): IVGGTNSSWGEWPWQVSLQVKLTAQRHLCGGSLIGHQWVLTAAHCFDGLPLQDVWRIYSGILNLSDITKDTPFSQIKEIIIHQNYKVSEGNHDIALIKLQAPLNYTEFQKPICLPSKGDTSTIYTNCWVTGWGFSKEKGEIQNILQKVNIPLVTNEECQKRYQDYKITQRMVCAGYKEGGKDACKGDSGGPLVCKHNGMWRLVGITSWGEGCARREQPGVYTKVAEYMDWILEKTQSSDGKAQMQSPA
Coagulation factor X, sequence (P00742 41-179 limits assumed): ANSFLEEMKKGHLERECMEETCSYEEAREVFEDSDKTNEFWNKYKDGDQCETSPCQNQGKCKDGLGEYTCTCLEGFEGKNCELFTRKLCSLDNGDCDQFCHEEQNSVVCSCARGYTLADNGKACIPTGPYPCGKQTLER
Coagulation factor X, sequence (P00742 235-488 limits assumed): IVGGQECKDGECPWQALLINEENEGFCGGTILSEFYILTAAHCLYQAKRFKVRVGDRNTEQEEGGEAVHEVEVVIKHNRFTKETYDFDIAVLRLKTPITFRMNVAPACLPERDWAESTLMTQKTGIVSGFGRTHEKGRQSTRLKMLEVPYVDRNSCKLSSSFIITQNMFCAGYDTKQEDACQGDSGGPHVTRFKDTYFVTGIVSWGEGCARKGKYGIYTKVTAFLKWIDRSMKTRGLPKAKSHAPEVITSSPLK
Plasminogen, sequence (P00747 97-580 limits assumed): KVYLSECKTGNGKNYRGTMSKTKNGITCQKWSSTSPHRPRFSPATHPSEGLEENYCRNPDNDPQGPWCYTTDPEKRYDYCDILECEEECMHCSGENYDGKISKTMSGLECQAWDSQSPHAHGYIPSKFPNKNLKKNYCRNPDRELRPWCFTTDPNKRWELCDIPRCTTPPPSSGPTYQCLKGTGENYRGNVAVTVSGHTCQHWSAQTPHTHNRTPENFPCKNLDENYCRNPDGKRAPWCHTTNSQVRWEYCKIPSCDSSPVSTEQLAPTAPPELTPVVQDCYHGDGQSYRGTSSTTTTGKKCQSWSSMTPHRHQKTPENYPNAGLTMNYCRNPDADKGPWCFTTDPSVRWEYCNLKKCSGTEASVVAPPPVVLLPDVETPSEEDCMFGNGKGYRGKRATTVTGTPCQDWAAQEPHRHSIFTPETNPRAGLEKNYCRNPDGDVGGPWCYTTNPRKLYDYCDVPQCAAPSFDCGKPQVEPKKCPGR
Plasminogen, sequence (P00747 581-810 limits assumed): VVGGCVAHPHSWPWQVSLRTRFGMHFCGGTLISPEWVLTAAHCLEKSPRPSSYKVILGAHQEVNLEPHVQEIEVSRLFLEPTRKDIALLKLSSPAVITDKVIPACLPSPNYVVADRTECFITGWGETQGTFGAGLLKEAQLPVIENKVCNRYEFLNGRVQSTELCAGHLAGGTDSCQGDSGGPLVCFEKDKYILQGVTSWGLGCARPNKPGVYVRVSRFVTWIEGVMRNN
Vitamin K-dependent protein C, sequence (P04070 43-197 limits assumed): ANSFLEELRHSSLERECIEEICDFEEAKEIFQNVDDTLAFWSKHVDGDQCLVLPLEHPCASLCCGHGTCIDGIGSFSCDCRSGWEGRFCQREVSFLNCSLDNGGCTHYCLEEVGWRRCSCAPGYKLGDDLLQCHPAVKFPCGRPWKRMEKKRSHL
Vitamin K-dependent protein C, sequence (P04070 212-461 limits assumed): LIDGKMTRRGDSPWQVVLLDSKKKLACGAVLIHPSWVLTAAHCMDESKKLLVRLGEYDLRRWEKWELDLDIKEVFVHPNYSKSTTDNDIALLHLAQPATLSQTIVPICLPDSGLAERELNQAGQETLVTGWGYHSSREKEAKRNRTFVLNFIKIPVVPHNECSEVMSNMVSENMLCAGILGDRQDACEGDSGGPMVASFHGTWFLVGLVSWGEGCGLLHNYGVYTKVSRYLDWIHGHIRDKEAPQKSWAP
Coagulation factor IX, sequence (P00740 47-191 limits assumed): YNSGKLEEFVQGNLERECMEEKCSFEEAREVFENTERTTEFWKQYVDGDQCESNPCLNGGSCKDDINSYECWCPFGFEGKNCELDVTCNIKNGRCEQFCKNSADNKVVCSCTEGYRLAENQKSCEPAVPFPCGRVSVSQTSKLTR
Coagulation factor IX, sequence (P00740 227-461 limits assumed): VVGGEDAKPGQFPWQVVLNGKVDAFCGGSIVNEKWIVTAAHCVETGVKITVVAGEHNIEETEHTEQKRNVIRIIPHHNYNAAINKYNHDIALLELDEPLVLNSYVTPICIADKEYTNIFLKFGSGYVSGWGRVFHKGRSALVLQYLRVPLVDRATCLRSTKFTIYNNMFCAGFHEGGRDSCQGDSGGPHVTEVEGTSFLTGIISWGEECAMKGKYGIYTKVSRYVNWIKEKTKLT

clearance [1]: 10 mL/min/kg | half-life [2]: 60 min | Vd [3]: 0.3 L/kg | bioavailability [4]: 0% | AUC [5]: 0.024 µM·h | fraction unbound [6]: 0.016
Compound: COC(=O)Nc1ccc2c(c1)NC(=O)CCCC[C@H](NC(=O)/C=C/c1cc(Cl)ccc1-n1cnnn1)c1nc-2c[nH]1

half-life [7]: 48 min | half-life [8]: 73 min | half-life [9]: 55 min | Papp A→B [10]: < 1.5 ×10⁻⁶ cm/s | Papp B→A [11]: 36.7 ×10⁻⁶ cm/s | half-life [12]: 68 min | Ki (Coagulation factor VII): > 13.3 µM | Ki (Coagulation factor IX): > 27.1 µM | Ki (Coagulation factor X): > 13.3 µM | Ki (Coagulation factor XII): 2.53 µM | Ki (Prothrombin): > 11.5 µM | Ki (Trypsin): > 10 µM | Ki (Plasma kallikrein): 0.0063 µM | Ki [13]: > 21.5 µM | Ki (Plasminogen): > 15 µM | Ki [14]: > 15.1 µM
Compound: COC(=O)Nc1ccc2c(c1)NC(=O)[C@H](C)CCC[C@H](NC(=O)c1ncn(-c3cccc(Cl)c3F)c1C)c1cc-2ccn1.Cl.Cl

half-life [9]: 39 min | Papp A→B [10]: 3.8 ×10⁻⁶ cm/s | Papp B→A [11]: 6.6 ×10⁻⁶ cm/s | half-life [12]: 54 min | clearance [15]: 4.6 mL/min/kg | half-life [16]: 690 min | Vd [17]: 3.4 L/kg | bioavailability [18]: 0%
Compound: COC(=O)Nc1ccc2c(c1)NC(=O)[C@H](C)CCC[C@H](NC(=O)/C=C/c1cc(Cl)ccc1-n1cnnn1)c1cc-2ccn1.O=C(O)C(F)(F)F
EC1.5 (Plasma): 0.62 µM
